Results published in US6344571B2, “Water soluble analogs and prodrugs of paclitaxel” (Pharmachemie B.V., priority 1998, dated 2002).
Converted amounts (≈) assume the structure as drawn. “Also recorded” adds a separate entry of the source.

Legend:
microtubule assembly = conditions: SAR studies, literature; cited from earlier work
[1] = SAR studies, literature; cited from earlier work
[2] = Water solubility (suspension in water or PBS-buffer, HPLC)
Procedure: Water Solubility: Paclitaxel or paclitaxel prodrugs (5, 6, 8, 11) were suspended in water or PBS-buffer (pH 7.4) until a concentration was reached of 2 mg/ml. The suspensions were sonicated for 15 minutes and centrifuged (13000 g) for 10 minutes (Nicolaou, K. C. et al. Nature 1993, 364, 464-466). The above fluid was analyzed, using HPLC. The paclitaxel (prodrug) concentration was determined using paclitaxel standards in methanol.
HPLC: Rheodyne injection valve (20 μl loop); Lichrospher 5RP18 column (200×3 mm, Chrompack); UV-detector (Model 759A, Applied Biosystems); eluent: CH3CN/MeOH/H2O: 5/1/4 in 10 mM NH4OAc (pH 5.0) (Willey, T. A. J. Chromatography 1993, 621, 231-238). The detection of the (pro)drugs was performed at 226 nm, where it is supposed that the extinction coefficients of paclitaxel and paclitaxel prodrugs are equal. The concentrations were determined by measuring the relative area of paclitaxel or the paclitaxel prodrugs.

[3] = Stability in PBS-buffer (pH 7.4), degradation to paclitaxel; format: physicochemical; conditions: PBS-buffer pH 7.4
Procedure: The paclitaxel prodrugs (5, 6, 8, 11) were dissolved in water, sonicated and centrifuged. 100 μl of the above fluid was mixed with 400 μl of plasma (heparin) or PBS-buffer (pH7.4), respectively, in such way that the concentration of the prodrug was about 0.5 mg/mL. […] After mixing for 2 minutes (using a vortex), this mixture was centrifuged (2 minutes, 13000 g) and 100 μl EtOAc was evaporated (30 minutes, in vacuo). The (pro)drugs were dissolved in 50 μl eluent and analyzed by HPLC (Longnecker, S. M. Cancer Treat Rep. 1987, 71, 53-59). The efficiency for the extraction of paclitaxel was about 80%.

[4] = Stability in human plasma, degradation to paclitaxel; format: in vitro ADME
Procedure: The paclitaxel prodrugs (5, 6, 8, 11) were dissolved in water, sonicated and centrifuged. 100 μl of the above fluid was mixed with 400 μl of plasma (heparin) or PBS-buffer (pH7.4), respectively, in such way that the concentration of the prodrug was about 0.5 mg/mL. The plasma or PBS-buffer, respectively, was incubated at 37° C. and on different points in time (T=0, 0.5, 1, 4, 20, 48 hours) 50 μl was extracted with 150 μl of EtOAc. After mixing for 2 minutes (using a vortex), this mixture was centrifuged (2 minutes, 13000 g) and 100 μl EtOAc was evaporated (30 minutes, in vacuo). The (pro)drugs were dissolved in 50 μl eluent and analyzed by HPLC (Longnecker, S. M. Cancer Treat Rep. 1987, 71, 53-59). The efficiency for the extraction of paclitaxel was about 80%.

MCF7 Breast cancer = experiment: Antiproliferative SRB assay, MCF7; format: cell-based, human; conditions: 37° C. 72 h, vs untreated cells
Procedure: (§1) Determination of the IC50-values for the new synthesized prodrugs have been determined with a variety of cell lines and have been compared with the IC50-value of paclitaxel 1 (see table II) Compounds 1, 5, 8, 11,:
(§2) The following human tumor cell lines were used:
(§3) MCF7 is estrogen receptor ER+/Progesterone receptor PgR+ and EVSA-T is ER-/PgR-.
(§4) Prior to the experiments a myocoplasma test was carried out on all cell lines and found to be negative. All cell lines, except ETSA-T, were maintained in a continuous logarithmic culture in RPMI medium with Hepes and Phenol red supplemented with 10% bovine calf serum (BCS), penicillin 111 IU/ml, streptomycin 111 μg/ml, gentamycin 46 μg/ml and insulin 10.6 μg/ml. EVSA-T was maintained in DMEM with 5% BCS and antibiotics as described. The cells were mildly trypsinized for passage and for use in experiments.
(§5) The compounds of this invention were dissolved to a concentration of 177147 ng/ml as follows:
(§6) On day 0, 200 μl of trypsinized tumor cells (2*10^3 cells/well) were plated in 96-wells flatbottom microtiter plates (Costar, no. 3799, Badhoevedorp, The Netherlands). The plates were preincubated 24 hr at 37° C., 5% CO2 to allow the cells to adhere.
(§7) […] The final volume of column 3 was adjusted to 200 μl with PBS. Column 2 was used for the blank. To column 1 PBS was added to diminish interfering evaporation.
(§8) […] Subsequently the cells were fixed with 10% trichloroacetic acid in Milli Q water (Millipore, Etten Leur, The Netherlands) and placed at 4° C. for one hour.
(§9) After five washings with tap water, the cells were stained for at least 15 min. with 0.4% SRB, dissolved in 1% acetic acid, and subsequently washed with 1% acetic acid to remove the unbound stain. The plates were air dried and the bound protein was dissolved by using 150 μl 10 mmol/l tris base. The absorbance was read at 540 nm using an automatic microplate reader (Titertec, Flow Laboratories LtD., Irvine, Scotland). Data were used for construction of concentration-response curves and determination of the IC50-value.

EVSA-T Breast cancer = experiment: Antiproliferative SRB assay, EVSA-T; format: cell-based, human; conditions: 37° C. 72 h, vs untreated cells
Procedure: as §1, §2, §3, §4, §5, §6, §7, §8, §9

WIDR Colon cancer = experiment: Antiproliferative SRB assay, WIDR; format: cell-based, human; conditions: vs untreated cells
Description: as §1, §2
(§10) Cell lines WIDR, M19 MEL, A498 and IGROV belong to the currently used anti-cancer screening panel of the National Cancer Institute, USA (Skeham et al., J. Nat. Cancer Inst. 85: 1107-1112, 1990).
as §4, §5, §6, §7, §8, §9

IGROV Ovarian cancer = experiment: Antiproliferative SRB assay, IGROV; format: cell-based, human; conditions: 37° C. 72 h, vs untreated cells
Description: as §1, §2, §10, §4, §5, §6, §7, §8, §9

M19 MEL Melanoma = experiment: Antiproliferative SRB assay, M19 MEL; format: cell-based, human; conditions: vs untreated cells
Description: as §1, §2, §10, §4, §5, §6, §7, §8, §9

A498 Renal cancer = experiment: Antiproliferative SRB assay, A498; format: cell-based, human; conditions: 37° C. 72 h, vs untreated cells
Description: as §1, §2, §10, §4, §5, §6, §7, §8, §9

H226 = experiment: Antiproliferative SRB assay, H226; format: cell-based, human; conditions: vs untreated cells
Procedure: as §1, §2
HA266 non small cell lung cancer
as §4, §5, §6, §7, §8, §9

human tumor cell lines = experiment: Cytotoxic activity in human tumor cell lines, overall comparison with paclitaxel; format: cell-based
Procedure: as §1, §2, §6
On day 2, 100 μl of the highest drug concentration was added to the wells of column 12 and from there diluted 3-fold to column 3 by serial transfer of 100 μl using an 8 channel micropipette. The final volume of column 3 was adjusted to 200 μl with PBS. Column 2 was used for the blank. To column 1 PBS was added to diminish interfering evaporation.
On day 7 the incubation was terminated by washing the plates twice with PBS. […]
After five washings with tap water, the cells were stained for at least 15 min. with 0.4% SRB, dissolved in 1% acetic acid, and subsequently washed with 1% acetic acid to remove the unbound stain. […] The absorbance was read at 540 nm using an automatic microplate reader (Titertec, Flow Laboratories LtD., Irvine, Scotland). […]

SMILES	activity in microtubule assembly assays (microtubule assembly)	cytotoxic activity compared with paclitaxel [1]	Water Solubility [2]	stability in PBS buffer [3]	degradation to paclitaxel in human plasma ([4]; human plasma)	T1/2 Human Plasma ([4]; human plasma (heparin), 37° C., time in which 50% of the analog is degraded to paclitaxel)	IC50 MCF7 (MCF7 Breast cancer)	IC50 EVSA-T (EVSA-T Breast cancer)	IC50 WIDR (WIDR Colon cancer)	IC50 IGROV (IGROV Ovarian cancer)	IC50 M19 MEL (M19 MEL Melanoma)	IC50 A498 (A498 Renal cancer)	IC50 H226 (H226)	cytotoxic activity compared to paclitaxel (human tumor cell lines)
CC(=O)O[C@H]1C(=O)[C@]2(C)[C@@H](OC(C)=O)C[C@H]3OC[C@@]3(OC(C)=O)[C@H]2[C@H](OC(=O)c2ccccc2)[C@]2(O)C[C@H](OC(=O)[C@H](O)[C@@H](NC(=O)c3ccccc3)c3ccccc3)C(C)=C1C2(C)C [7-acetylpaclitaxel]	as active as paclitaxel	–	–	–	–	–	–	–	–	–	–	–	–	–
CC(=O)O[C@H]1C(=O)[C@@]2(C)[C@H]([C@H](OC(=O)c3ccccc3)[C@]3(O)C[C@H](OC(=O)[C@H](OC(C)=O)[C@@H](NC(=O)c4ccccc4)c4ccccc4)C(C)=C1C3(C)C)[C@]1(OC(C)=O)CO[C@@H]1C[C@@H]2O [2′-acetyl-paclitaxel]	loss of the ability to promote microtubule assembly	almost the same as for paclitaxel	–	–	–	–	–	–	–	–	–	–	–	–
CC(=O)OC1C(=O)C2(C)C(OC(=O)CC(O)C(=O)O)CC3OCC3(OC(C)=O)C2C(OC(=O)c2ccccc2)C2(O)CC(OC(=O)C(OC(=O)CC(O)C(=O)O)C(NC(=O)c3ccccc3)c3ccccc3)C(C)=C1C2(C)C (stereo not drawn) [Compound 8, 2′, 7-Bis(malyl)paclitaxel]	–	–	500 µg/mL	sufficient stability; also recorded: no degradation to the parent drug	no degradation to the parent drug	no pacl.^b	0.069 µg/mL (≈ 0.0635 µM)	0.059 µg/mL (≈ 0.0543 µM)	0.167 µg/mL (≈ 0.154 µM)	0.049 µg/mL (≈ 0.0451 µM)	0.311 µg/mL (≈ 0.286 µM)	0.436 µg/mL (≈ 0.401 µM)	0.241 µg/mL (≈ 0.222 µM)	reduced cytotoxic activity
